# Values quoted from earlier work, collected in patent US20050154016A1, “Preventives for hiv infection” (priority 2002, published 2005).
# System: R5 HIV-1
# Conditions: reported in non-patent document 18
structure (smiles),measurement,value
Cc1ccc(-c2ccc3c(c2)C=C(C(=O)Nc2ccc(C[N+](C)(C)C4CCOCC4)cc2)CCC3)cc1.[Cl-] [TAK-779],inhibitory effect against HIV-1 infection caused by R5 HIV-1,exhibits an inhibitory effect
